Test [1] relates to HEK293. The test is described as follows: optical interference in Abeta FP readout, dose response, artefact control for IDE activator project, biochemical, fluorescence polarization (AID 588442). It is filed as functional, cell-based. The following applies: Homo sapiens. Background: In fluorescence polarisation assays a small probe gives low polarisation when free and higher when bound to something large.

Test [2] concerns the target T1, Insulin-degrading enzyme (Homo sapiens, UniProt P14735).
T1 sequence (P14735 whole entry): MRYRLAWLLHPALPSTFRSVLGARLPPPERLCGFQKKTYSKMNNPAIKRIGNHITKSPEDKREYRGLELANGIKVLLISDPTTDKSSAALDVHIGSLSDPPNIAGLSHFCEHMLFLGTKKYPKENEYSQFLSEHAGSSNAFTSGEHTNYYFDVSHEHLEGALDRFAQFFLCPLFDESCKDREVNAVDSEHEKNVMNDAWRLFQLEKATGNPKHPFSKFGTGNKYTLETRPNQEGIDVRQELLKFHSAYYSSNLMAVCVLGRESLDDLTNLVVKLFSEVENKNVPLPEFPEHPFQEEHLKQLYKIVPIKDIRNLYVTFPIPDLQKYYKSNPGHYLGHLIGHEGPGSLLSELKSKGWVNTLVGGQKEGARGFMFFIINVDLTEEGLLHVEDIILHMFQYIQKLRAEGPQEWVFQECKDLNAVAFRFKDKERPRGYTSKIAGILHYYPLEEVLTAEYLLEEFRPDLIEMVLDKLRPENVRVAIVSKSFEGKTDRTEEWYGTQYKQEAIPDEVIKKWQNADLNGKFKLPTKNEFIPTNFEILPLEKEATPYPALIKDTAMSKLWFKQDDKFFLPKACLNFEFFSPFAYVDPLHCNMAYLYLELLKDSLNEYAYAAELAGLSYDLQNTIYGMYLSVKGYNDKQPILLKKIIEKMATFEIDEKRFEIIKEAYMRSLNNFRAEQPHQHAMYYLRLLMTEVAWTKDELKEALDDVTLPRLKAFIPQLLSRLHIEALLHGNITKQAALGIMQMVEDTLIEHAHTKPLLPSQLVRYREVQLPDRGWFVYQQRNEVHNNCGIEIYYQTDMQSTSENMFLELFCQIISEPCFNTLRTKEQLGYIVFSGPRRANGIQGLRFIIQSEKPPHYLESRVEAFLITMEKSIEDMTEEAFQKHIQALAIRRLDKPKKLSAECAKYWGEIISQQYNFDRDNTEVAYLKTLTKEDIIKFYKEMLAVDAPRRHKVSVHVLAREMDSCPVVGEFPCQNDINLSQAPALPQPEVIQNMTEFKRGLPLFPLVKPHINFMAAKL
Briefly: cellular IDE activation of Abeta substrate cleavage – fluorescence polarization, HEK cells, dose response (AID 588439). It is filed as functional, cell-based.

Test [3] addresses T2, Mannose-6-phosphate isomerase (Homo sapiens, UniProt P34949).
T2 sequence (P34949 whole entry): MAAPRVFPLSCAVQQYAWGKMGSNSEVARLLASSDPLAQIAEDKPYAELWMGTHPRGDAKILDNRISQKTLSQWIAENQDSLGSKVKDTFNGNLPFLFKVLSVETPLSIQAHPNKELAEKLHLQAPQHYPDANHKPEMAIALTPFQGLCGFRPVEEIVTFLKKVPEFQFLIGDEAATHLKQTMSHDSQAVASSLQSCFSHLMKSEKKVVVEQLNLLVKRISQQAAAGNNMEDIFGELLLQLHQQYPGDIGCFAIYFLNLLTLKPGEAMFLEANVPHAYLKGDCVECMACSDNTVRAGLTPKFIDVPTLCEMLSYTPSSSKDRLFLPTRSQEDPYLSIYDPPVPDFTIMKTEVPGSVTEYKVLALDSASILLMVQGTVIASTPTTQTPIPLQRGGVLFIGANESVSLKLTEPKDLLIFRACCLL
Briefly: MPI inhibition at elevated mannose 6-phosphate – biochemical, fluorescence intensity, high mannose 6-phosphate, primary screen (AID 1220).

The target in test [4] is T3, Cysteine protease ATG4B (Homo sapiens, UniProt Q9Y4P1).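 Also: Fluorescence-based dose-response confirmation assay measuring inhibition of ATG4B activity.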
T3 sequence (Q9Y4P1 whole entry): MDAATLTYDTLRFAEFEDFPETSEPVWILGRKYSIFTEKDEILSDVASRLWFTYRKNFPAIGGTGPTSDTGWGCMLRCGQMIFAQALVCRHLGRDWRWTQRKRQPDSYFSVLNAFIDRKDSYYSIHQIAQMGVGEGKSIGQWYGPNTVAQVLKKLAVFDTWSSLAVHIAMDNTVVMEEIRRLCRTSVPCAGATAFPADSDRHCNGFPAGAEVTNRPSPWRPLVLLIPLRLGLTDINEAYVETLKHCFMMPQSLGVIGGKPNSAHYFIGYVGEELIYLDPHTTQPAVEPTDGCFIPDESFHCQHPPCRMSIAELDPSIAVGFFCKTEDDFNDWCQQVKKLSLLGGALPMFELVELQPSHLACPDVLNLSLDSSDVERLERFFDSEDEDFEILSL
It is filed as functional.

A short description of test [5]: Luminescence Cell-Based Dose Response HTS to Identify Inhibitors of 5'UTR Stem-Loop Driven Prion Protein mRNA Translation in H4 Neuroglioblastoma Cells. [Related pubchem assays: 1827 (Project Summary), 1813 (Primary HTS)]. It is filed as functional.
The test system of test [6] is Streptococcus sp. 'group A'. The test is described as follows: Streptococcus pyogenes SK(-)GAS viability under kanamycin – luminescence, BacTiterGlo, confirmation, counter-screen for streptokinase expression inhibitor project, dose response (AID 1900). It is filed as functional, organism-based. For orientation: Counterscreens check selectivity or assay interference.

For test [7], the system named is INS1. The test is described as follows: INS-1E survival protection against cytokine death – cell-based, luminescence, retest, dose response (AID 449756).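 Also: cell death triggered by IL-1 beta plus TNF-alpha plus IFN-gamma mixture; protective hits raise ATP signal compared with cytokine alone wells.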 The following applies: Rattus norvegicus. It is filed as functional.
Test [8] addresses Heat shock protein HSP 90-alpha (Homo sapiens, UniProt P07900). It is filed as functional, organism-based.
The target in test [9] is T4, Serine/threonine-protein phosphatase (Candida dubliniensis (strain CD36 / CBS 7987 / NCPF 3949 / NRRLY-17841) (Yeast), UniProt B9W6M3).
T4 sequence (B9W6M3 whole entry): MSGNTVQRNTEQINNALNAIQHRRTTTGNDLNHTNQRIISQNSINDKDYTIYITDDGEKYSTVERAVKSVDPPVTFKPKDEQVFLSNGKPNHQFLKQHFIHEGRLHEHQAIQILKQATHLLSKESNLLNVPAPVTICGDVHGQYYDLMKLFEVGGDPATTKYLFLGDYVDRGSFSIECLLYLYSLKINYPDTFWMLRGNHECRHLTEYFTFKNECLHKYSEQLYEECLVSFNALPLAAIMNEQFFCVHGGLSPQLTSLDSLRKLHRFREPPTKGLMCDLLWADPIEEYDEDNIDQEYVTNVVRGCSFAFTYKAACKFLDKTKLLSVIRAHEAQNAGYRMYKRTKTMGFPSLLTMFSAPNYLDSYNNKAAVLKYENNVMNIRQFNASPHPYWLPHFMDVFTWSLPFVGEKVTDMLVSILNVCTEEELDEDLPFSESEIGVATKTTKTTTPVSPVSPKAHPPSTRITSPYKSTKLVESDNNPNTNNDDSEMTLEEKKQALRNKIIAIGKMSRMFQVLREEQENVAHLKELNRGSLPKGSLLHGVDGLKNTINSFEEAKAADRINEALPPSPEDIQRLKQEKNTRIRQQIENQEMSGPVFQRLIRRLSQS
Briefly: blockers of CaCl2-induced CDRE-lacZ signaling – S. cerevisiae, luminescence, secondary, dose response (AID 2388).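 Also: yeast reporter cells carrying a calcineurin-responsive lacZ construct stimulated with calcium chloride; luminescent beta-galactosidase reporter signal in whole cells rather than isolated phosphatase activity; potency for inhibition where a drop in reporter signal means calcineurin blockade.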 It is filed as functional, cell-based.

Active and inactive are the calls of the source.

These results are taken from ChEMBL document CHEMBL1201862, “PubChem BioAssay data set” (2004).

As for `O=C1CCN2C=Nc3cccc4ccc1c2c34`, the EC50 – broadly, the concentration giving half of the maximal effect – was 17 µM (inactive) in test [1] and > 54.7 µM (inactive) in test [2]. For the same compound, in [3], the IC50 (in general, the concentration at which inhibition is half-maximal) is recorded as > 58 µM (not active).

As to `Oc1ccc2ccccc2c1/C=N/Nc1nnc(-c2ncc[nH]2)c2ccccc12`, the IC50 in test [4] was 2.53 µM (active). In addition, the figures for the concentration giving a half-maximal response (EC50) in test [5], in [6] and in test [9] were 0.292 µM (active), 1.98 µM (active) and > 180 µM (inactive), respectively. Moreover, the AC50 (commonly the midpoint of the concentration-response curve, whichever way the signal moves) in test [7] was 0.424 µM (active); in test [8] it was 3.53 µM (active).
